Where “and” joins values, the source holds several entries; their conditions need not be identical. Equal entries are not always repeated. Square brackets hold non-standard residues; d marks the D form. Peptide text beside a SMILES is read from it. ξ: configuration not given here. Ile(3ξ) = CCC(C)[C@H](N)C(=O)O; Thr(3ξ) = CC(O)[C@H](N)C(=O)O; Nle = CCCC[C@H](N)C(=O)O
Assays:
healthy adult volunteers [1] = assay: Multiple dose study in healthy volunteers (Examples 4 and 7), pharmacodynamics: plasma citrulline, Bristol stool scale, body weight; type: in vivo, human; details: for Citrulline, estimate of the difference: 6 weekly SC doses
Protocol: The endogenous marker citrulline was selected to assess the pharmacodynamic effect of apraglutide. Citrulline was detected in all baseline and post-dose samples. Three baseline citrulline samples were obtained during two baseline visits between screening and the first dosing day and before dosing on the first dosing day. […] At baseline, the mean citrulline range was 5.3825-5.6207 μg/mL for placebo, 5.3900-6.2028 μg/mL for 1 mg apraglutide, 4.8983-5.3023 μg/mL for 5 mg apraglutide and 5.0730-5.4690 μg/mL for 10 mg apraglutide. In the placebo group, the mean citrulline concentration remained relatively stable over the trial, ranging from 4.9735 to 5.8253 μg/mL.
In short, the first contrast tested compared the mean Rpre-dose at the first time point (week 1) to the pooled mean Rpre-dose over all remaining time points (week 2 to 6). The second contrast compared the mean at week 2 to the pooled mean over week 3 to 6, etc. Testing continued until the contrast was not statistically significant. The mean Rpre-dose at week 6 for 10 mg against mean Rpre-dose over week 5 (0.8720, 95% CI: 0.1590; 1.5850 and p=0.0172) was statistically significant.
Besides citrulline, the Bristol stool scale and body weight were assessed as pharmacodynamic endpoints. In contrast to citrulline and weight, the Bristol stool scale is a discrete variable. Subjects assessed their stool in the past 24 hours using the Bristol stool scale ranging from constipation (type 1) to diarrhea (type 7). No stool in the past 24 hours was recorded as zero. As two subjects (assigned to either 1 or 5 mg) reported no stool preceding the first dose, the screening Bristol stool scale score was also taken into account when determining the baseline Bristol stool scale score.
Citrulline, BSS and weight data are analyzed with a mixed model analysis of variance with fixed factors treatment, time and treatment by time, random factor subject, and the average prevalue as covariate. The average pre-value was calculated from all pre-values after screening and before dosing, except for BSS, where the screening value was also used to calculate the average baseline.
For all pharmacodynamic endpoints (citrulline, Bristol stool scale and weight), the pre-value has been used as covariate. The average pre-value was calculated from all pre-values after screening and before dosing, except for the Bristol stool scale, where the screening value was also used to calculate the average baseline. The average pre-value of citrulline was also used as covariate in the MCP-MOD, except in the Sigmoid Emax model. This was addressed by subtracting the pre-value times the slope of the linear model of the MCP part from the values of week 6.

healthy adult volunteers [2] = assay: Safety in multiple dose study in healthy volunteers; type: in vivo, human; details: 1, 5 or 10 mg, 6 weekly SC doses
Protocol: The pharmacokinetic/pharmacodynamic (PK/PD) relationship between apraglutide, a novel long-acting GLP-2 analog in development for short bowel syndrome, and citrulline was evaluated in a randomized, double-blind, parallel arm, placebo-controlled, multiple dose study. 23 healthy adult volunteers received 6 weekly subcutaneous doses of apraglutide (1, 5, or 10 mg) or placebo and were followed for a further 6 weeks after the last dose. Blood collections were controlled for diet, lifestyle, and diurnal effects.

[3] = human, sc, 5 mg
Excerpt: Plasma citrulline was used as a pharmacodynamic (“PD”) marker to describe the effect of apraglutide. Similar to the pharmacokinetic (“PK”) model development, the PK/PD model was developed for the healthy individuals from studies GLY-101-2015 and TA799-002 only. For development of the PD model, the PD observations were fitted together with the PK observations using the final PK model with its structure, residual error-, covariates- and random effects-models. The starting model was a turnover model where plasma citrulline was constantly synthesized and degraded with the synthesis rate ksyn and the degradation rate kdeg. Plasma apraglutide stimulated citrulline synthesis via a sigmoid Emax relationship with the baseline citrulline level R0, the half-maximal effect at the concentration EC50, the maximal effect Emax, and a Hill coefficient gamma. It was assumed that citrulline turnover was in steady state such that citrulline synthesis was determined solely by citrulline baseline and degradation. The population PK/PD of plasma apraglutide was established with data from two studies in healthy volunteers and two studies with SBS patients that tested doses between 2.5 and 50 mg SC.
The population PK/PD model was used to predict plasma apraglutide exposure and plasma citrulline trough concentration-time profiles with and without inter-individual variability for individuals with body weights between 40 and 120 kg receiving weekly doses of 2.5, 5, or 10 mg SC. […] Apraglutide exposure for body weights between 40 and 120 kg and apraglutide SC doses of 2.5, 5, or 10 mg was compared to post-hoc exposure estimates of SBS patients. Bracketing at a body weight of 50 kg between doses of 2.5 and 5 mg was simulated.
Plasma citrulline was described by a turnover model and maximal PD effect model.

[4] = as compared with human GLP-2 and other GLP-2 analogues; cited from earlier work
[5] = 5 mg, over the whole trial period
[6] = 10 mg, over the whole trial period (N = 5)

CCCC[C@H](NC(=O)[C@H](CCC(=O)O)NC(=O)[C@H](CC(=O)O)NC(=O)[C@H](CO)NC(=O)[C@H](Cc1ccccc1)NC(=O)[C@H](CO)NC(=O)CNC(=O)[C@H](CC(=O)O)NC(=O)CNC(=O)[C@@H](N)Cc1c[nH]cn1)C(=O)N[C@H](Cc1ccccc1)C(=O)N[C@H](C(=O)N[C@H](C(=O)N[C@@H](CC(C)C)C(=O)N[C@@H](CC(=O)O)C(=O)N[C@@H](CC(C)C)C(=O)N[C@@H](CC(C)C)C(=O)N[C@@H](C)C(=O)N[C@@H](C)C(=O)N[C@@H](CCCNC(=N)N)C(=O)N[C@@H](CC(=O)O)C(=O)N[C@@H](Cc1ccccc1)C(=O)N[C@H](C(=O)N[C@@H](CC(N)=O)C(=O)N[C@@H](Cc1c[nH]c2ccccc12)C(=O)N[C@@H](CC(C)C)C(=O)N[C@H](C(=O)N[C@@H](CCC(N)=O)C(=O)N[C@H](C(=O)N[C@@H](CCCCN)C(=O)N[C@H](C(=O)N[C@H](C(=O)N[C@@H](CC(=O)O)C(N)=O)C(C)O)C(C)CC)C(C)O)C(C)CC)C(C)CC)C(C)CC)C(C)O (stereo partly drawn) [apraglutide, L-histidyl-glycyl-L-aspartyl-glycyl-L-seryl-L-phenylalanyl-L-seryl-L-aspartyl-L-glutamyl-L-norleucyl-D-phenylalanyl-L-threonyl-Lisoleucyl-L-leucyl-L-aspartyl-L-leucyl-L-leucyl-L-alanyl-L-alanyl-L-arginyl-L-aspartyl-L-phenylalanyl-L-isoleucyl-L-asparaginyl-Ltryptophanyl-L-leucyl-L-isoleucyl-L-glutaminyl-L-threonyl-L-lysyl-L-isoleucyl-L-threonyl-Laspartic acid amide] (H-HGDGSFSDE[Nle][dF][Thr(3ξ)][Ile(3ξ)]LDLLAARDF[Ile(3ξ)]NWL[Ile(3ξ)]Q[Thr(3ξ)]K[Ile(3ξ)][Thr(3ξ)]D-NH2)
Citrulline Rpre-dose, arithmetic mean ± SD (healthy adult volunteers [1]; 5 mg, last dose 6): 7.2498 ± 1.2461 µg/mL
Citrulline Rpre-dose, geometric mean (healthy adult volunteers [1]; 5 mg, last dose 6): 7.1475 µg/mL
Citrulline Rmax, arithmetic mean ± SD (healthy adult volunteers [1]; 5 mg, last dose 6, listed as Apraglutide): 8.1577 ± 1.7108 µg/mL
Citrulline Rmax, arithmetic mean ± SD (healthy adult volunteers [1]; [5]): 8.2550 ± 1.7807 µg/mL
Citrulline Rmax, geometric mean (healthy adult volunteers [1]; [5]): 8.0870 µg/mL
Citrulline Rtmax, median (healthy adult volunteers [1]; 5 mg, whole trial period, from first dose): 38.9 days
Difference between mean Rmax over the whole trial and Rmax after last dose (healthy adult volunteers [1]; 10 mg): 0.0362 µg/mL
No stool in the past 24 hours, number of reports (healthy adult volunteers [1]; 10 mg group (1 subject)): 1 time
Steady-state contrast: mean citrulline Rpre-dose at week 6 against week 5 (healthy adult volunteers [1]; 10 mg, Helmert's approach): 0.8720
Highest mean citrulline value following the first weekly SC dose (healthy adult volunteers [1]; 10 mg, after 7 days): 7.8487 µg/mL
Citrulline Rtmax, median (healthy adult volunteers [1]; 10 mg, after last dose 6 (N = 5)): 3.9 days
Citrulline Rpre-dose, arithmetic mean ± SD (healthy adult volunteers [1]; 10 mg, last dose 1): 7.8487 ± 2.7273 µg/mL
Citrulline Rpre-dose, geometric mean (healthy adult volunteers [1]; 10 mg, last dose 1): 7.4048 µg/mL
Citrulline Rpre-dose, arithmetic mean ± SD (healthy adult volunteers [1]; 10 mg, last dose 2): 7.6058 ± 2.3210 µg/mL
Citrulline Rpre-dose, geometric mean (healthy adult volunteers [1]; 10 mg, last dose 2): 7.2438 µg/mL
Citrulline Rpre-dose, arithmetic mean ± SD (healthy adult volunteers [1]; 10 mg, last dose 3): 7.5180 ± 2.1369 µg/mL
Citrulline Rpre-dose, geometric mean (healthy adult volunteers [1]; 10 mg, last dose 3): 7.2331 µg/mL
Citrulline Rpre-dose, arithmetic mean ± SD (healthy adult volunteers [1]; 10 mg, last dose 4 (N = 5)): 7.2060 ± 2.5488 µg/mL
Citrulline Rpre-dose, geometric mean (healthy adult volunteers [1]; 10 mg, last dose 4 (N = 5)): 6.8103 µg/mL
Citrulline Rpre-dose, arithmetic mean ± SD (healthy adult volunteers [1]; 10 mg, last dose 5 (N = 5)): 7.1994 ± 2.5111 µg/mL
Citrulline Rpre-dose, geometric mean (healthy adult volunteers [1]; 10 mg, last dose 5 (N = 5)): 6.7908 µg/mL
Citrulline Rmax, arithmetic mean ± SD (healthy adult volunteers [1]; 10 mg, last dose 6 (N = 5)): 8.7254 µg/mL
Citrulline Rmax, geometric mean (healthy adult volunteers [1]; 10 mg, last dose 6 (N = 5)): 8.2533 µg/mL
Citrulline Rpre-dose, arithmetic mean ± SD (healthy adult volunteers [1]; 10 mg, last dose 6 (N = 5)): 8.0714 ± 3.0514 µg/mL
Citrulline Rpre-dose, geometric mean (healthy adult volunteers [1]; 10 mg, last dose 6 (N = 5)): 7.5618 µg/mL
Citrulline Rmax, arithmetic mean ± SD (healthy adult volunteers [1]; 10 mg, last dose 6 (N = 5), listed as Apraglutide): 8.7254 ± 3.0145 µg/mL
Citrulline Rmax, arithmetic mean ± SD (healthy adult volunteers [1]; [6]): 8.7616 ± 2.9900 µg/mL
Citrulline Rmax, geometric mean (healthy adult volunteers [1]; [6]): 8.2953 µg/mL
Citrulline Rt1/2, individual subjects (healthy adult volunteers [1]; 10 mg, two subjects): 6.5 days and 11.0 days
Citrulline Rtmax, median (healthy adult volunteers [1]; 10 mg, whole trial period, from first dose (N = 5)): 36.9 days
Time after first dose at which increases in citrulline were observed (healthy adult volunteers [1]; 1, 5 or 10 mg): 2 days
Bristol stool scale with zeroes set to missing, estimate of the difference (healthy adult volunteers [1]; Placebo - 1 mg): −0.6
Bristol stool scale, estimate of the difference (healthy adult volunteers [1]; Placebo - 1 mg): −0.9
Weight, estimate of the difference (healthy adult volunteers [1]; Placebo - 1 mg): -0.750 kg
Citrulline, estimate of the difference (healthy adult volunteers [1]; Placebo - 1 mg): 0.3146 µg/mL
Citrulline, estimate of the difference (healthy adult volunteers [1]; Placebo - 1 mg, listed as Apraglutide): 0.31 [95% CI: −0.4371; μg/mL
Bristol stool scale with zeroes set to missing, estimate of the difference (healthy adult volunteers [1]; Placebo - 5 mg): −0.4
Bristol stool scale, estimate of the difference (healthy adult volunteers [1]; Placebo - 5 mg): −1.0
Weight, estimate of the difference (healthy adult volunteers [1]; Placebo - 5 mg): -0.865 kg
Citrulline, estimate of the difference (healthy adult volunteers [1]; Placebo - 5 mg): 1.2574 µg/mL
Citrulline, estimate of the difference (healthy adult volunteers [1]; Placebo - 5 mg, listed as Apraglutide): 1.26 [95% CI: 0.5037; μg/mL
Bristol stool scale with zeroes set to missing, estimate of the difference (healthy adult volunteers [1]; Placebo - 10 mg): −0.5
Bristol stool scale, estimate of the difference (healthy adult volunteers [1]; Placebo - 10 mg): −0.6
Weight, estimate of the difference (healthy adult volunteers [1]; Placebo - 10 mg): -0.331 kg
Citrulline, estimate of the difference (healthy adult volunteers [1]; Placebo - 10 mg): 1.6343 µg/mL
Citrulline, estimate of the difference (healthy adult volunteers [1]; Placebo - 10 mg, listed as Apraglutide): 1.63 [95% CI: 0.8809; μg/mL
Variability in citrulline Rmax explained by AUCtau (R squared) (healthy adult volunteers [1]; week 6): 26%
Increase of maximum citrulline response per 100 d*ng/mL increase in AUCtau (healthy adult volunteers [1]; week 6, regression line): 390 ng/mL
Safety and tolerability in words (healthy adult volunteers [2]): safe and well-tolerated with no serious AEs
Time of peak plasma concentration (Cmax), population PK/PD model estimate [3]: 1.39 days
half-life [4]: at least 30 hours
